By IC50 is commonly meant the concentration that gives 50% inhibition.

For one experiment, the system named is MCA205 cells. In words: (Photo-)cytotoxicity on 2D cell monolayers, resazurin assay. To be noted: for IC50: MCA205, normoxic, 4 h exposure. Type of experiment: cell-based, mouse. The protocol: (§1) The 2D cytotoxicity and phototoxicity profiles of Os‐Pt‐Cer and controls, were evaluated in a panel of cancerous cell lines, including A2780 (ovarian carcinoma), A549 (non‐small cell lung carcinoma), and MCA205 (murine fibrosarcoma), as well as a non‐cancerous retinal pigment epithelial cell line (RPE‐1). Cells were treated with the compounds (0.003–100 µM) for 4 h, either kept in the dark or irradiated at 670 nm (13.5 J cm^− ^2) (Table S4 and Figure S22) or 740 nm (12.6 J cm^− ^2) and viability was assessed 44 h post‐treatment. To verify robustness, the incubation was extended to 72 h. […]
(§2) Human ovarian cancer (A2780) cells and mouse fibrosarcoma cells (MCA205) were cultured in RPMI media. Retinal pigment epithelium (RPE -1) cells were cultured in DMEM/F -12 medium. Lung cancer cells (A549) were cultured in F -12K medium. These cell lines were complemented with 10% of fetal bovine serum, 100 U/mL penicillin -streptomycin mixture, and maintained in a humidified atmosphere […]
(§3) (Photo-)cytotoxicity on 2D cell monolayers
(§4) The cytotoxicity of the compounds was assessed by measuring cell viability using a resazurin assay.
(§5) The cells were seeded in triplicates in 96 well plates with a density of 10 4 cells per well in 100 μL of media. After 24 h, the medium was removed, and the cells were treated with increasing concentrations (0.003 → 100 µM) of the compounds diluted in cell media , achieving a total volume of 100 μL/well.
(§6) The cells were incubated with the compound for 4 h (final incubation time 48 h) or 24 h (final incubation time 72 h). After this time, the media was removed and replaced with 100 μL of fresh medium. For the phototoxicity studies, the cells were exposed to light with an Atlas Photonics LUMOS BIO irradiation system. Each well was constantly irradiated at 670 nm (60 min, 13.50 J·cm-2) or 740 nm (60 min, 12.60 J·cm-2). During the irradiation, the temperature of the plate was maintained at 37 °C. The cells were grown in the incubator for an additional 44 or 48 h, respectively. For the determination of the dark cytotoxicity, the cells were not irradiated and after the medium exchange directly incubated for 44 h.
(§7) After this time, the medium was replaced with fresh medium containing resazurin (0.2 mg/mL). After […]
(§8) 4 h of incubation, the conversion of resazurin into resorufin was determined upon excitation at 540 nm and measurement of its emission at 590 nm using a Cytation 5 Imaging Reader from BioTek. The obtained data was analysed with the GraphPad Prism software […]
(§9) After 24 h of incubation at 37 °C, 5% CO 2, plates were read using a SpectraMaxM2 Microplate Reader ( λexc = 540 nm; λread = 590 nm). Fluorescence data were normalised, and data were fitted using GraphPad Prism Software, and IC 50 was calculated by non - linear regression. Changes in the size and shape of MCTS were monitored every 24 h using Cytation 5 Imaging Reader from BioTek, objective x4.
(§10) Intracellular distribution by confocal fluorescence microscopy
(§11) 10^4 cells/well (A2780 cells) were seeded in complete medium (RPMI) in µ -slide 8 well (Ibidi) (100 µl/well) and left for 24 h to attach to the bottom. Then, the culture medium was removed , and 100 µl of solution of the corresponding complexes (5 µM) was added. The complexes were incubated with the cells for 4 hours. Thereafter, the medium was removed and replaced by RPMI without phenol red , and Hoechst and MitoTracker Green were added at a final concentration of 1 µg/mL. They were incubated with the cells for 30 min in the dark at 37 °C. Images were collected in a sequential mode in a Leica TCS SP8 confocal microscope with a 60x oil immers ion objective, a line average of 4, and a format of […]
(§12) (MTG)→ 500 -550nm, and 488 nm (complexes)→ 680 -730 nm. The confocal pinhole was 1 Airy unit.
(§13) Images were analysed with LAS X Flim FCS software.
(§14) Intracellular distribution by ICP -MS
(In general: Alamar Blue is a resazurin reagent that responds to reducing activity.)

The subject of the next experiment is A2780 cells. Described as above. Type of experiment: cell-based, human. To be noted: A2780, normoxic, dark, 4 h exposure, total 48 h incubation, read-out: IC50 Dark. The protocol:
as §1, §2, §3, §4, §5, §6, §7, §8, §9, §10, §11, §12, §13, §14

For another experiment, the system named is A2780 MCTSs. In words: Growth kinetics (diameter) of spheroids. It counts as cell-based, human. To be noted: 0.5 µM, irradiated 1 h at 740 nm, after 72 h. The protocol: A2780 spheroids (ca. 500 µm in diameter) were treated with increasing concentrations of the compounds and after 24 h of incubation, the medium was replaced with fresh medium, and the cells were either kept in the dark or irradiated for 1 h at 740 nm. Images of the spheroids were taken every 24 h for 3 days.
Figure 4 Changes in the growth kinetics of A2780 MCTSs treated with complex Os‐Pt‐Cer, Os, ceritinib, oxaliplatin, and cisplatin at 0.5 and 5 µM for irradiated and dark groups, respectively, and non‐treated as control. Images were collected on 0, 4, 24, and 72 h after the creation of the groups. Scale bar: 1000 µm.
4 h of incubation, the conversion of resazurin into resorufin was determined upon excitation at 540 nm and measurement of its emission at 590 nm using a Cytation 5 Imaging Reader from BioTek. The obtained data was analysed with the GraphPad Prism software
MCTS were cultured using ultra-low attachment 96 wells plates from Corning (Fisher Scientific 15329740). A2780 cells were seeded at a density of 1,500 cells per well in 100 μL of RPMI. Within 2-3 days, MCTSs have approximately 500 μm of diameter. The formation as well as integrity and diameter of the MCTSs were monitored by microscopy.
(Photo-)cytotoxicity on 3D multicellular tumor spheroids (MCTS) […]
Intracellular distribution by confocal fluorescence microscopy […]
Images were analysed with LAS X Flim FCS software. […]

Where [1] appears, read: Mus musculus, MCA-205, dark, total 48 h incubation, read-out: IC50 Dark.

Each structure is given as a SMILES string. Like-named read-outs stand apart in the source and are kept apart here. Bounds are passed on as bounds.

Consider `C=Cc1c(C)c2cc3nc(c(CC(=O)O)c4[nH]c(cc5nc(cc1[nH]2)C(C)=C5CC)c(C)c4C(=O)O)[C@@H](CCC(=O)O)[C@@H]3C` [Ce6, Chlorin e6], for which the “PI (IC50 dark/IC50 irradiation 740 nm)” value with MCA205 cells (MCA205) is on record as at least 53. The IC50 is 1880 ± 200 nM with MCA205 cells (Mus musculus, MCA-205, 740 nm (60 min, 12.60 J·cm^−2), total 48 h, read-out: IC50 Irrad. 740 nm) and over 100000 nM with MCA205 cells (setting [1]).

Consider `Cc1cc(Nc2ncc(Cl)c(Nc3ccccc3S(=O)(=O)C(C)C)n2)c(OC(C)C)cc1C1CCNCC1` [Ceritinib], for which the results for the IC50 in the experiment with A2780 cells (Homo sapiens) and with MCA205 cells (setting [1]) were 2.61 ± 0.5 µM and 6970 ± 700 nM, respectively. In addition, the “change of MCTS diameter” value in the experiment on A2780 MCTSs was “increased with time”.

Turning to `O=C1[O][Pt]2([NH][C@@H]3CCCC[C@H]3[NH]2)[O]C1=O` [Oxaliplatin], the IC50 in the experiment on A2780 cells was determined as 46.15 ± 0.2 µM; in the experiment with MCA205 cells (dark, total 48 h incubation, read-out: IC50 Dark), 800 ± 90 nM. Further, the “change of MCTS diameter” value in the experiment on A2780 MCTSs is “increased with time”.

The values are drawn from paper PMC12668304, “A Triple Threat Against Ovarian Cancer: Os(II)‐Pt(IV)‐Ceritinib Conjugates for Photodynamic Therapy, Chemotherapy, and Immunogenic Cell Death Induction” (Angewandte Chemie (International Ed. in English), 2025).
